Laboratory results from article PMC2871279 (Nature, 2009).

What was measured:
dvUT [1] = molecular target: T1, dvUT (Nitratidesulfovibrio vulgaris, UniProt Q72CX3); experiment: scintillation proximity saturation binding, Hill fit
T1 sequence (Q72CX3 1-337): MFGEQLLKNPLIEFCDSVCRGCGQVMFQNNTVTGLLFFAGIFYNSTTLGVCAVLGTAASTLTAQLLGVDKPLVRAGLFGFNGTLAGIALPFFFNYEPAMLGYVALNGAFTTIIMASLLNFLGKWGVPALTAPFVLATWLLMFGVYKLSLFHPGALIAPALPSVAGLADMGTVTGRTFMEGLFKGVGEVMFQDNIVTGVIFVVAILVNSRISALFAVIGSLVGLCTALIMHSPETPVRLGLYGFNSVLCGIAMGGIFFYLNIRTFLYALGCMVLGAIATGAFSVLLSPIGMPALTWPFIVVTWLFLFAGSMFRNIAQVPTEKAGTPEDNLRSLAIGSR

dvUT [2] = molecular target: T1, dvUT; experiment: SPA isotopic dilution of […]-urea; format: binding
dvUT [3] = molecular target: T1, dvUT; experiment: […]-urea uptake in Xenopus oocytes; format: cell-based; details: read-out: % inhibition at 1 mM
human UT-B = molecular target: T2, human UT-B (Homo sapiens, UniProt Q13336); experiment: […]-urea uptake in Xenopus oocytes; format: cell-based; details: read-out: % inhibition at 1 mM
T2 sequence (Q13336 1-389): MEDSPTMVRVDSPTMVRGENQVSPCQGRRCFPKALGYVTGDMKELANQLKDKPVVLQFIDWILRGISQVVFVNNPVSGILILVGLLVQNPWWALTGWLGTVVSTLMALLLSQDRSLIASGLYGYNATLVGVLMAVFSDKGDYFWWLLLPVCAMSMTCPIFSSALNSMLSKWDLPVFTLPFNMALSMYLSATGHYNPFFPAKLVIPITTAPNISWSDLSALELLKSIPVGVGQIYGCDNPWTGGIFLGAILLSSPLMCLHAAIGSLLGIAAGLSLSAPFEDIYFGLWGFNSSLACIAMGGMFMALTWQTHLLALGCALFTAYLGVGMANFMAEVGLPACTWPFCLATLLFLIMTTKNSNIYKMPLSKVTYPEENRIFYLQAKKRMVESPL

Kd (dvUT [1]) [µM]	IC50 (dvUT [2]) [µM]	inhibition at 1000 µM (dvUT [3]) [%]	inhibition at 1000 µM (human UT-B) [%]	SMILES
2300 ± 140	2300 ± 700	–	–	NC(N)=O [urea]
–	–	87	86	O=C(CCc1ccc(O)cc1)c1c(O)cc(O)cc1O [phloretin]
